Results as given in patent US20120328713A1, “Articles of Manufacture with Improved Anti-microbial Properties” (priority 2009, published 2012).

Columns and labels:
[1] = test system: P. aeruginosa ATCC 27853; assay: Silver (III) periodate efficacy testing in the presence of Cl-, SO4 2-, and PO4 3-; assay type: cell-based; conditions: water, 1% NaCl, 1% K2SO4 and 1% K2HPO4 solutions; challenge time 30 minutes; tested 1.5-200 ppm
Protocol: Silver (III) periodate was tested for efficacy in water, 1% NaCl, 1% K2SO4, and 1% K2HPO4 solutions, and compared with silver nitrate. The test solutions were tested against P. aeruginosa ATCC 27853. The challenge time was 30 minutes. Silver (III) periodate and silver nitrate were tested at range of 1.5-200 ppm.

[2] = test system: relevant clinical pathogens in biofilm form (Pseudomonas aeruginosa, MRSA, MRSE, Acinetobacter baumanii, Listeria monocytogenes, VRE, Escherichia coli, Candida …); assay: MBEC efficacy testing against relevant clinical pathogens in saline; assay type: cell-based; conditions: challenge time 4 hours, 2000 ppm to 15.62 ppm
Protocol: The antimicrobial effect of silver (III) periodate and silver nitrate (2000 ppm to 15.62 ppm) in saline was tested against Pseudomonas aeruginosa, Staphylococcus aureus (MRSA), Staphylococcus epidermidis (MRSE), Acinetobacter baumanii, Listeria monocytogenes, Enterococcus faecalis (VRE), Escherichia coli, Candida albicans, Klebsiella pneumonia, Enterobacter aerongenes. The challenge time was 4 hours.

[3] = test system: Candida albicans ATCC 28367; assay: MBEC P&G assay in dilutions of human serum; assay type: cell-based
Protocol: (§1) The effects of silver (III) periodate and silver nitrate were tested in different dilutions of human serum (0.001%, 0.01%, 0.1%, 1%, 10%, 50%) using the MBECTM P&G assay against relevant clinical human pathogens Escherichia coli, Staphylococcus aureus (MRSA), and Candida albicans. The challenge time was 4 hours. The tested concentration range for the silver compounds was 500 to 7.8 ppm.

[4] = test system: Escherichia coli ATCC 25922; assay: MBEC P&G assay in dilutions of human serum; assay type: cell-based
Protocol: as §1

[5] = test system: Staphylococcus aureus (MRSA) 456; assay: MBEC P&G assay in dilutions of human serum; assay type: cell-based
Protocol: as §1

[6] = test system: Escherichia coli (ATCC 25922); assay: MBEC P&G assay in dilutions of urine; assay type: cell-based
Protocol: The effects of silver (III) periodate and silver nitrate in different dilutions of urine (0.001%, 0.01%, 0.1%, 1%, 10%, 50%) using the MBEC™ P&G assay were tested against Escherichia coli (ATCC 25922)The challenge time was 4 hours. The tested concentration range for both silver compounds was 500 to 7.8 ppm.

[7] = test system: Escherichia coli (ATCC 25922); assay: MBEC P&G assay in dilutions of feces; assay type: cell-based
Protocol: The challenge time was 4 hours. The tested concentration range for both silver compounds was 500 to 7.8 ppm.

[8] = test system: Escherichia coli (ATCC 25922); assay: MBEC P&G assay in dilutions of mucin; assay type: cell-based
Protocol: The effects of silver (III) periodate and silver nitrate in different dilutions of mucin (2.0%, 1.0%, 0.5%, 0.25%, 0.12%, 0.06%) were tested using the MBEC™ P&G assay against Escherichia coli (ATCC 25922)The challenge time was 4 hours. The tested concentration range for both silver compounds was 500 to 7.8 ppm.

[9] = test system: bacterial speck (Pseudomonas syringae pv. tomato); assay: Field trial, foliar spray against bacterial speck in tomatoes (Example 18); assay type: in vivo, tomatoes (Lycopersicon esculentum); conditions: after three treatment sprays
[10] = test system: bacterial canker (Clavibacter michiganensis pv. michiganensis); assay: Field trial, foliar spray against bacterial canker in tomatoes (Example 19); assay type: in vivo, tomatoes (Lycopersicon esculentum)
Protocol: Silver (III) periodate was tested as a bactericidal foliar spray treatment against bacterial canker (Clavibacter michiganensis pv. michiganensis) in tomatoes (Lycopersicon esculentum).
See Example 18 for Preparation of Tomato Seed; Preparation of Field; Seeding; Plot Maintenance; Preparation of Spray Treatment Solutions and Inoculum; Spray Treatment Procedure; and Data Collection.

[11] = test system: bacterial speck; assay: Field trial, foliar spray against bacterial speck in tomato (Example 22); assay type: in vivo; conditions: compared with the standard Kocide and Kocide+Dithane
Protocol: Silver (III) periodate was tested as a foliar spray treatment fungicide against bacterial speck in tomato.
See Example 22 for Preparation of Tomato Seed; Preparation of Field; Seeding; Plot Maintenance; Preparation of Spray Treatment Solutions and Inoculum; Spray Treatment Procedure; and Data Collection.
The treatments compared were water (control), oxysilver nitrate, silver (III) periodate, Dithane, Kocide 2000, Dithane DG 75+Kocide 2000, oxysilver nitrate+Dithane, and silver (III) periodate+Dithane, Serenade Max, and Serenade Max+oxysilver nitrate.

[12] = test system: alternaria leaf blight (Alternaria brassicicola); assay: Field trial, foliar spray against alternaria leaf blight in cauliflower and broccoli (Example 23); assay type: in vivo
Protocol: (§2) Silver (III) periodate was tested as a fungicidal foliar spray treatment against alternaria leaf blight (Alternaria brassicicola) and downy mildew (Peronospora paratsitica Lui) in cauliflower (Brassica oleracea var. botrytis) and broccoli (Brassica oleracea […]), respectively.
Preparation of Seed, Preparation of Field, Seeding, Plot Maintenance: Two trials were conducted in organic soil (pH ≈7.2, organic matter ≈47.2%). Cauliflower and broccoli were seeded into 128-cell Plastomer plug trays in early June and hand transplanted in early July in two rows, 86 cm apart and 9 meter in length, with an in-row spacing of 40 cm. A randomized complete block arrangement with four replicates per treatment was used. Treatments were applied in July and August using a CO2 backpack sprayer equipped with 4 TeeJet D-2 hollow cone nozzles spaced 40 cm apart and calibrated to deliver 250 L/ha at 240 kPa.
This was immediately followed by irrigation to achieve leaf wetness. The plots were treated prior to inoculation.
Preparation of Spray Treatment Solutions and Inoculum: The treatment rate for silver (III) periodate was 0.16 kg/ha. It was also combined (at this rate) with Bravo, which was delivered at 2.5L/ha.
Data Collection: Plants were monitored weekly to determine when lesions were first observed. Plants (15 per rep, randomly selected and marked for continued assessment) were assessed twice during the growing season for number of lesions per leaf. As heads mature, 15 heads per rep in total were harvested and assessed from each experimental unit. The number of Alternaria le sions per leaf were counted. Healthy leaves were counted and trimmed head weights were recorded to indicate marketable yield.
Treatments compared were oxysilver nitrate, silver (III) periodate, Bravo, Bravo+oxysilver nitrate, Bravo+silver (III) periodate, and water (control).

[13] = test system: downy mildew (Peronospora paratsitica Lui); assay: Field trial, foliar spray against downy mildew (Example 24); assay type: in vivo; conditions: compared with the check
Protocol: as §2
See Example 23 for Preparation of Tomato Seed; Preparation of Field; Seeding; Plot Maintenance; Preparation of Spray Treatment Solutions and Inoculum; Spray Treatment Procedure; and Data Collection.

[Ag+3].[Na+].[Na+].[Na+].[Na+].[Na+].[O-][I+]([O-])([O-])([O-])([O-])O.[O-][I+]([O-])([O-])([O-])([O-])O [silver (III) periodate, sodium diperiodatoargentate]
effective concentration [1]: 1.73 ppm
MBEC (minimum biofilm eradication concentration) killing activity [2]: higher killing activity than silver nitrate against most of the tested strains
log reduction ([3]; 0.1%, 0.01%, 0.001% human serum, concentrations higher than 125 ppm): higher log reductions
log reduction ([3]; 10% and 1% human serum, 31.25-125 ppm): Log reductions were higher
log reduction compared with silver nitrate ([4]; 0.1% and 0.01% human serum, low tested concentrations): lower log reduction than silver nitrate
difference in log reduction over silver nitrate ([4]; 50% and 10% human serum, even at concentrations as low as 7.8 ppm): 1.5-2.0 log reduction
log reduction, trend with compound concentration ([4]; human serum dilutions, in general, 4 hours, 500 to 7.8 ppm): log reductions decreased with the decrease in concentrations of silver (III) periodate
log reduction compared with the other compound ([5]; 0.001% human serum, 31.25-125 ppm): higher log reductions
killing activity ([5]; 0.1% and 0.01% human serum): no significant killing activity
killing activity, silver (III) periodate vs silver nitrate ([5]; high concentrations of human serum): no significant differences
MBC cut-off point ([6]; 10% urine): 31.25 ppm
MBC cut-off point ([6]; 100% urine): 250 ppm
log reduction ([6]; 500 and 250 ppm, all tested concentrations of urine): approximately equal log reductions
log reduction compared with the other compound ([6]; compound concentrations of 125 ppm and below): larger log reduction at the lower and middle concentrations
compound concentration giving the highest log reduction ([6]; concentrations at 125 ppm and below, urine): 62.5 ppm
MBC, effective level ([7]; 1.56% feces): > 15.6 ppm
MBEC, effective level ([7]; 1.56% feces): 125 ppm
MBC, effective level ([7]; 3.13% feces): > 31.25 ppm
MBEC, effective level ([7]; 3.13% feces): 250 ppm
MBC, effective level ([7]; 6.25% feces): > 62.5 ppm
MBEC, effective level ([7]; 6.25% feces): 125 ppm
MBC, effective level ([7]; 12.5% feces): > 62.5 ppm
MBC, effective level ([7]; 25% feces): higher than 125 ppm
MBC, effective level ([7]; 50% feces): higher than 125 ppm
MBEC, effective level ([7]; concentrations of feces higher than 12.5%, ineffective at highest tested concentration): > 500 ppm
log reduction, trend with compound concentration ([8]; higher concentrations of mucin): log reduction decreased with a decrease in concentration of silver (III) periodate
effectiveness compared with the other compound ([8]; higher concentrations of mucin (2% and 1%)): more effective than silver nitrate
log reduction, trend with compound concentration ([8]; lower concentrations of mucin (0.25%, 0.12% and 0.06%)): log reduction was relatively unaffected by the changes in concentration
effectiveness compared with the other compound ([8]; mucin 0.5%, 0.25%, 0.12% and 0.06%, lower compound concentrations): more effective than the lower tested concentrations of silver nitrate
disease severity on foliage [9]: best at reducing disease severity on foliage
disease severity on foliage ([10]; after three treatment sprays): best at reducing disease severity on foliage
disease severity on foliage ([10]; after two treatment sprays): best at reducing disease severity on foliage
levels of bacterial speck (number of infected leaves) or disease severity ratings [11]: did not have statistically different levels
harvest weights ([12]; broccoli): higher harvest weights (not significant)
Alternaria lesions per leaf ([12]; compared with the check, broccoli): significantly lower Alternaria lesions per leaf than the check
Alternaria lesions per leaf ([12]; second result paragraph, crop not given): higher Alternaria lesions per leaf than the check and other treatments
downy mildew severity indexes [13]: significantly lower downy mildew severity indexes than the check
